# From article PMC7160362, “A Polyamine-Based Dinitro-Naphthalimide Conjugate as Substrates for Polyamine Transporters Preferentially Accumulates in Cancer Cells and Minimizes Side Effects in vitro and in vivo” (Frontiers in Chemistry, 2020)
# Read-outs that look alike come from different tables or passages of the source.
# Columns and labels:
# [1] = test system: cisplatin-sensitive lung cancer cells A549; assay: MTT cytotoxicity assay; format: cell-based; details: A549; for IC50: Homo sapiens, MTT, 48 h
# Description: (§1) We incubated hepatic carcinoma (Snu-368 and Snu-739), breast carcinoma (MDA-MB-231 and MCF-7), cisplatin-sensitive lung cancer cells A549, and cisplatin-resistant lung cancer cells A549cisR in 96-well plates in a 5% CO2 atmosphere at 37°C for 24 h (5,000 cells/well). After adding drugs in freshly prepared culture medium (100 μl) and incubating for another 48 h, we added 20 μl MTT (5 mg/ml) and incubated for another 3 h. At last, after the medium was removed, 150 μl DMSO was added. By using a Bio-Rad 680 microplate reader, the absorbance was measured at 570 nm and the IC50 values were calculated using the GraphPad Prism software based on three parallel experiments.
# (§2) In vitro assays were firstly conducted to evaluate the inhibitory effect of polyamine-based naphthalimide conjugates 5a-5c, 7a-7b, and 11a-11b on six cancer cell lines, namely, Snu-368 and Sun-739 (hepatoma cell line), MCF-7 (breast carcinoma), MDA-MB-231 (triple negative breast cancer), cisplatin-sensitive lung cancer A549, and resistant A549cisR cells by using traditional MTT tests. Two classic antitumor agents in clinic trials, amonafide and cisplatin, were chosen as the reference drugs (Table 1). The preliminary structure–activity relationship (SAR) can be obtained from the in vitro biological results.
# [2] = test system: MDA-MB-231 cells (triple negative breast cancer); assay: MTT cytotoxicity assay; format: cell-based; details: MDA-MB-231; for IC50: Homo sapiens, MTT, 48 h
# Description: as §1, §2
# [3] = test system: MCF-7 cells (breast carcinoma); assay: MTT cytotoxicity assay; format: cell-based; details: for IC50: Homo sapiens, MCF7, MTT, 48 h
# Description: as §1, §2
# [4] = test system: Snu-739 cells (hepatic carcinoma); assay: MTT cytotoxicity assay; format: cell-based; details: for IC50: SNU-739, MTT, 48 h
# Description: as §1, §2
# [5] = test system: Snu-368 cells (hepatic carcinoma); assay: MTT cytotoxicity assay; format: cell-based; details: for IC50: MTT, 48 h
# Description: as §1, §2
# [6] = test system: cisplatin-resistant lung cancer cells A549cisR; assay: MTT cytotoxicity assay; format: cell-based; details: for IC50: MTT, 48 h; for RF (resistance factor): IC50 in A549cisR cells/IC50 in A549 cells
# Description: as §1, §2
# [7] = test system: HL-7702 (normal liver cell); assay: MTT cytotoxicity on matched normal cells; format: cell-based; details: for IC50: Homo sapiens; for SI (selectivity index), range over Snu-368 and Snu-739: HL-7702 versus Snu-368 and Snu-739
# Description: as §1
# The selectivity for cancer cells over normal healthy cells is important for ideal anticancer agents, thereby mitigating undesired toxic side effects associated with chemotherapy. The selectivity of polyamine-based dinitro-naphthalimide conjugates 5a-5c was evaluated by Snu-368 and Snu-739 (hepatic carcinoma), and the matched normal cells HL-7702 (normal liver cell). Moreover, dinitro-naphthalimide conjugates 5a-5c (SI 1.94–7.47) show lower cytotoxicity in normal cells.
# [8] = test system: six cancer cell lines (Snu-368, Snu-739, MCF-7, MDA-MB-231, A549, A549cisR); assay: MTT cytotoxicity assay, whole panel; format: cell-based; details: versus amonafide and cisplatin
# Description: as §1, §2
# [9] = test system: Put, Spd, and Spm in Snu-739 cells; assay: Polyamine contents assay (HPLC, dansyl derivatives); format: cell-based; details: Snu-739, 24 h
# Source text: (§3) According to our previous report (Wang et al., [2012]; Li et al., [2016], [2018]; Dai et al., [2017a]; Ma et al., [2017a],[b], [2018]; Liu et al., [2019]), the contents of Put, Spd, and Spm were detected by a G1321A fluorescence detector in both Snu-368 and Snu-739 cells. Cells were harvested and dansyl chloride was used as the derivation reagent. After converting to the corresponding dansyl derivatives, Put, Spd, and Spm were separated by using High Performance Liquid Chromatogra (HPLC) (Agilent 1260, Agilent Technologies, USA) with a C18 chromatographic column (25 × 4.6 mm, 5 μm). As the internal standard substance, 1,6-diaminohexane was used. The excitation and emission wavelengths were 340 and 515 nm, separately. The mobile phase was methanol–water from 65:35 to 100:0 within 30 min.
# [10] = test system: Put, Spd, and Spm in Snu-368 cells; assay: as above; format: cell-based; details: Snu-368, 24 h
# Source text: as §3
# [11] = test system: p53 in Snu-739 cells; assay: Western blot of p53; format: cell-based; details: Snu-739, 24 h
# Description: We performed western blot analysis to determine the contents of p53 after treatment by 5c for 5, 10, and 15 μM for 24 h. After washing three times with PBS, we harvested and centrifuged the cells, which were lysed with a RIPA buffer (Beyotime, China). The total contents of protein were determined by a BCA assay kit (Beyotime, China). At 100°C for 10 min, the total lysates were denatured in a 5 × SDS-loading buffer. Equal amounts of total proteins were separated by 12% SDS-PAGE. Dried skimmed milk (5%) was used to block the separated protein in Tris Buffered Saline Tween (TBST) at room temperature for 1 h. And then the corresponding primary antibodies and the appropriate HRP-conjugated secondary antibody were used to incubate with the separated protein. By ECL plus reagents (Beyotime, Jiangsu, China), we detected the expression of p53.
# [12] = test system: polyamine oxidase (PAO) in Snu-368 cells; assay: PAO assay kit; format: cell-based; details: Snu-368, 10 μM, 24 h
# Source text: (§4) We measured the total PAO level using a PAO assay kit according to our previous report (Liu et al., [2019]) (Hepeng Biotechnology, Cat. HEPENGBIO156).
# [13] = test system: polyamine oxidase (PAO) in Snu-739 cells; assay: PAO assay kit; format: cell-based; details: Snu-739, 10 μM, 24 h
# Source text: as §4
# [14] = test system: Snu-739 cells; assay: Annexin V-FITC/PI staining, flow cytometry; format: cell-based
# Description: Annexin V-FITC/PI staining was used to detect the apoptosis of Snu-739 cells by FCM (flow cytometry). Firstly, we plated the cells in six-well plates (1 × 10^5 cells/well). 5c 10 μM and amonafide 10 μM were added and incubated for 24 h. And then we harvested the cells and washed three times with PBS. Then the protocol was stained according to our previous report (Wang et al., [2012]; Li et al., [2016], [2018]; Dai et al., [2017a]; Ma et al., [2017a],[b]; Ma et al., [2018]; Liu et al., [2019]) and was performed by FCM (BD Biosciences, San Jose, CA, USA).
# [15] = test system: HCC xenografts; assay: In vivo antitumor assay, HCC xenografts; details: for tumor suppression (inhibition rate, tumor weight): tail vein, once every day for 7 days
# Source text: Healthy BALB/c mice (Cat. SCXK 2016-0006, Beijing, China) aged 5 weeks were used for the determination of anticancer activity. We obtained BALB/c mice from the Laboratory Animal Center, Academy of Military Medical Science. They were raised in compliance with the Guide for the Care and Use of Laboratory Animals. The weight of healthy BALB/c mice is 18–22 g.
# We firstly injected HCC cells with 1 × 10^6 cells per mouse to determine the anticancer activity. After a week, the tumors increased to 80–120 mm^3. The mice were divided into four groups for 5c (3 mg/kg), 5c (5 mg/kg), the positive control amonafide (5 mg/kg), or the negative control physiological saline. We injected 5c or amonafide via the tail vein every day for a total of seven treatments. Body weight was determined every day. And then the mice were sacrificed after 7 days. The tumor tissues were weighed and the inhibition rate [((average tumor weight of negative control group – average tumor weight of the drug treated or positive control group)/average tumor weight of control group) × 100] was calculated. The organ index [(organ weight/body weight) × 100%] was also counted including heart, liver, kidney, lung, and spleen at the last day. Both 5c and amonafide were dissolved in glucose injection. And they were used immediately after preparation.
# The highest FI levels in Snu-739 also indicate a significant therapy for HCC. Therefore, HCC animal models were used to test the in vivo antitumor activities. Mice bearing HCC xenografts were treated with 5c (3 mg/kg), 5c (5 mg/kg), the positive control amonafide (5 mg/kg), and normal saline (negative control) once every day for 7 days by tail vein (Figure 3).
# [16] = L02, normal liver cell, read-out: IC50 HL-7702
smiles,measurement,setting,value
Nc1cc2c3c(cc(N)cc3c1)C(=O)N(CCCCNCCCNC1CC1)C2=O [7a],IC50,[1],14 ± 1.39 µM
same,IC50,[2],26.9 ± 2.65 µM
same,IC50,[3],8.62 ± 0.85 µM
same,IC50,[4],25.8 ± 2.9 µM
same,IC50,[5],> 30 µM
same,IC50,[6],17.4 ± 1.68 µM
O=C1c2cc([N+](=O)[O-])cc3cc([N+](=O)[O-])cc(c23)C(=O)N1CCCCNCCCNC1CCCCC1 [5a],SI (selectivity index) IC50 in HL-7702/IC50 in Snu-368,[7],2.14
same,SI (selectivity index) IC50 in HL-7702/IC50 in Snu-739,[7],2.92
same,IC50,"[7]; L02, read-out: IC50 HL-7702",6.3 ± 0.23 µM
same,IC50,[1],2.17 ± 0.2 µM
same,IC50,[2],1.19 ± 0.12 µM
same,IC50,[3],2.3 ± 0.18 µM
same,IC50,[4],2.16 ± 0.1 µM
same,IC50,[5],2.94 ± 0.06 µM
same,RF (resistance factor),[6],1.67
same,IC50,[6],3.62 ± 0.15 µM
O=C1c2cc([N+](=O)[O-])cc3cc([N+](=O)[O-])cc(c23)C(=O)N1CCCCNCCCNC1CC1 [5c],"FI (fold increase), range over cell lines",[8],3.59–48.63
same,"contents of Put, Spd, and Spm versus control group",[9],downregulated
same,"contents of Put, Spd, and Spm versus control group",[10],downregulated
same,SI (selectivity index) IC50 in HL-7702/IC50 in Snu-368,[7],5.21
same,SI (selectivity index) IC50 in HL-7702/IC50 in Snu-739,[7],7.47
same,"SI (selectivity index), range over Snu-368 and Snu-739",[7],5.21–7.47
same,IC50,[7]; [16],5.68 ± 0.83 µM
same,p53 protein expression,[11],upregulated
same,relative PAO activity versus control group,[12],1.5–2 folds
same,relative PAO activity versus control group,[13],1.5–2 folds
same,early apoptotic cells,"[14]; 10 μM, 24 h",35.00%
same,late apoptotic cells,"[14]; 10 μM, 24 h",38.50%
same,apoptotic cells,[14]; total of early and late,73.50%
same,FI (fold increase) IC50(amonafide)/IC50(5c),[1],3.59
same,FI (fold increase) IC50(cisplatin)/IC50(5c),[1],5.73
same,IC50,[1],1.92 ± 0.23 µM
same,IC50,[2],1.33 ± 0.12 µM
same,FI (fold increase) IC50(amonafide)/IC50(5c),[2],11.20
same,FI (fold increase) IC50(cisplatin)/IC50(5c),[2],12.02
same,IC50,[3],1.35 ± 0.15 µM
same,FI (fold increase) IC50(amonafide)/IC50(5c),[3]; MCF-7,4.36
same,FI (fold increase) IC50(cisplatin)/IC50(5c),[3]; MCF-7,7.11
same,IC50,[4],0.76 ± 0.05 µM
same,FI (fold increase) IC50(amonafide)/IC50(5c),[4]; Snu-739,17.08
same,FI (fold increase) IC50(cisplatin)/IC50(5c),[4]; Snu-739,13.18
same,IC50,[5],1.09 ± 0.1 µM
same,FI (fold increase) IC50(amonafide)/IC50(5c),[5]; Snu-368,12.83
same,FI (fold increase) IC50(cisplatin)/IC50(5c),[5]; Snu-368,15.02
same,FI (fold increase) IC50(amonafide)/IC50(5c),[6]; A549cisR,13.23
same,FI (fold increase) IC50(cisplatin)/IC50(5c),[6]; A549cisR,48.63
same,RF (resistance factor),[6],0.43
same,IC50,[6],0.83 ± 0.08 µM
same,FI (fold increase) amonafide/5c in RF column,[6]; ratio of RF values,3.70
same,"tumor suppression (inhibition rate, tumor weight)",[15]; 3 mg/kg,57.97%
same,"tumor suppression (inhibition rate, tumor weight)",[15]; 5 mg/kg,65.90%
same,average tumor volume,"[15]; day 7, control group 900 mm^3, dose not stated",480 mm^3
same,organ weight indexes / toxicological profile in vivo,"[15]; heart, liver, kidney, lung, spleen, end of experiment",no obvious pathological changes
NCCCCNCCCCN1C(=O)c2cc(N)cc3cc(N)cc(c23)C1=O [7b],IC50,[1],> 30 µM
same,IC50,[2],> 30 µM
same,IC50,[3],> 30 µM
same,IC50,[4],> 30 µM
same,IC50,[5],> 30 µM
same,IC50,[6],17.3 ± 1.78 µM
"CN(C)CCN1C(=O)c2cccc3cc(N)cc(c23)C1=O [Amonafide, amonafide, reference compound]",SI (selectivity index) IC50 in HL-7702/IC50 in Snu-368,[7],0.83
same,SI (selectivity index) IC50 in HL-7702/IC50 in Snu-739,[7],0.89
same,"SI (selectivity index), range over Snu-368 and Snu-739",[7],0.83–0.89
same,IC50,[7]; [16],11.6 ± 1.36 µM
same,IC50,[1],6.89 ± 0.68 µM
same,IC50,[2],14.9 ± 1.75 µM
same,IC50,[3],5.89 ± 0.56 µM
same,IC50,[4],13 ± 1.56 µM
same,IC50,[5],14 ± 1.78 µM
same,RF (resistance factor),[6],1.59
same,IC50,[6],11 ± 1.02 µM
same,"tumor suppression (inhibition rate, tumor weight)",[15]; 5 mg/kg,53.27%
